Test results as given in patent publication US20240083857A1, “2-Methyl-Quinazolines” (Bayer Pharma Aktiengesellschaft, priority 2017, published 2024).

Columns and labels:
[1] = target: human SOS1 (nucleotide exchange of K-Ras^G12C) (Homo sapiens, UniProt Q07889); assay: Biochemical assay 2: K-Ras^G12C activation assay by hSOS1 at high GTP concentration (HTRF); conditions: high GTP; for IC50: read-out: Assay 2 (KRAS-Activation by SOS high GTP) activity expressed as IC50; for inhibition at 20 µM: read-out: Assay 2 (KRAS-Activation by SOS high GTP) activity expressed as % inhibition at 20 μM
[2] = target: human SOS1 (loading of human K-Ras^G12C-GDP with fluorescent GTP-analog) (Homo sapiens, UniProt Q07889); assay: Biochemical assay 3: K-Ras^G12C activation assay by hSOS1 (HTRF); conditions: no GTP; for inhibition at 20 µM: read-out: Assay 3 (KRAS-Activation by SOS no GTP) activity expressed as % inhibition at 20 μM
[3] = target: K-Ras^G12C : hSOS1 interaction (Homo sapiens, UniProt Q07889); assay: Biochemical assay 1: K-Ras^G12C interaction assay with hSOS1 (HTRF); format: binding; conditions: for IC50: read-out: Assay 1 (KRAS-SOS Interaction) activity expressed as IC50; for inhibition at 20 µM: read-out: Assay 1 (KRAS-SOS Interaction) activity expressed as % inhibition at 20 μM

Compound | IC50 [1] [µM] | inhibition at 20 µM [2] [%] | IC50 [3] [µM] | IC50 ([2]; read-out: Assay 3 (KRAS-Activation by SOS no GTP) activity expressed as IC50) [µM] | inhibition at 20 µM [1] [%] | inhibition at 20 µM [3] [%]
C/C=C/c1ccc([C@H](C)Nc2nc(C)nc3cc(OC)c(OC)cc23)s1 (racemic) [Example 177, 6,7-dimethoxy-2-methyl-N-[1-{5-[(1E)-prop-1-en-1-yl]thiophen-2-yl}ethyl]quinazolin-4-amine] | 6.7 | 49 | 5.77 | – | – | –
COc1cc2nc(C)nc(NC(C)c3ccc(-c4ccccc4)o3)c2cc1OC (single isomer, unassigned) [Example 224, 6,7-dimethoxy-2-methyl-N-[1-(5-phenylfuran-2-yl)ethyl]quinazolin-4-amine, enantiomer] | 2.55 | – | 3.6 | 9.37 | – | –
COc1cc2nc(C)nc(N[C@H](C)c3cc4cccc(OC)c4o3)c2cc1OC (stereo in doubt) [Example 33, 6,7-dimethoxy-N-[1-(7-methoxy-1-benzofuran-2-yl)ethyl]-2-methylquinazolin-4-amine] | – | 9 | – | – | 24 | 53
COc1cc2nc(C)nc(N[C@@H](C)c3ccc(-c4ccc(N5CCOCC5)cc4)s3)c2cc1OC (stereo in doubt) [Example 43, 6,7-dimethoxy-2-methyl-N-[1-{5-[4-(morpholin-4-yl)phenyl]thiophen-2-yl}ethyl]quinazolin-4-amine] | – | 16 | – | – | 14 | 30
COc1cc2nc(C)nc(N[C@@H](C)c3ccc(-c4cccc(N5CCOCC5)c4)s3)c2cc1OC (stereo in doubt) [Example 44, 6,7-dimethoxy-2-methyl-N-[1-{5-[3-(morpholin-4-yl)phenyl]thiophen-2-yl}ethyl]quinazolin-4-amine] | – | 25 | – | – | 47 | 55
CCCOc1ccccc1-c1ccc([C@H](C)Nc2nc(C)nc3cc(OC)c(OC)cc23)s1 (stereo in doubt) [Example 47, 6,7-dimethoxy-2-methyl-N-{1-[5-(2-propoxyphenyl)thiophen-2-yl]ethyl}quinazolin-4-amine] | – | 17 | – | – | 22 | 40
COc1cc2nc(C)nc(N[C@@H](C)c3ccc(-c4ccccc4)s3)c2cc1OC (stereo in doubt) [Example 70, 6,7-dimethoxy-2-methyl-N-[1-(5-phenylthiophen-2-yl)ethyl]quinazolin-4-amine] | 8.62 | 47 | 6.82 | – | – | –
COc1cc2nc(C)nc(N[C@@H](C)c3ccc(-c4cc(Cl)cc(Cl)c4)s3)c2cc1OC (stereo in doubt) [Example 122, N-{1-[5-(3,5-dichlorophenyl)thiophen-2-yl]ethyl}-6,7-dimethoxy-2-methylquinazolin-4-amine] | – | 21 | – | – | 17 | 46
COc1cc2nc(C)nc(N[C@@H](C)c3ccc(-c4cccc(-c5nnc(C)o5)c4)s3)c2cc1OC (stereo in doubt) [Example 126, 6,7-dimethoxy-2-methyl-N-[1-{5-[3-(5-methyl-1,3,4-oxadiazol-2-yl)phenyl]thiophen-2-yl}ethyl]quinazolin-4-amine] | – | 11 | – | – | 31 | 52
COc1cc(F)cc(-c2ccc([C@H](C)Nc3nc(C)nc4cc(OC)c(OC)cc34)s2)c1 (stereo in doubt) [Example 134, N-{1-[5-(3-fluoro-5-methoxyphenyl)thiophen-2-yl]ethyl}-6,7-dimethoxy-2-methylquinazolin-4-amine] | – | 27 | – | – | 23 | 43
COc1cc2nc(C)nc(N[C@@H](C)c3ccc(-c4cccc(OCc5ccccc5)c4)s3)c2cc1OC (stereo in doubt) [Example 135, N-[1-{5-[3-(benzyloxy)phenyl]thiophen-2-yl}ethyl]-6,7-dimethoxy-2-methylquinazolin-4-amine] | – | 13 | – | – | 5 | 28
CCCCOc1cccc(F)c1-c1ccc([C@H](C)Nc2nc(C)nc3cc(OC)c(OC)cc23)s1 (stereo in doubt) [Example 136, N-{1-[5-(2-butoxy-6-fluorophenyl)thiophen-2-yl]ethyl}-6,7-dimethoxy-2-methylquinazolin-4-amine] | – | 18 | – | – | 20 | 37
COc1cc2nc(C)nc(N[C@@H](C)c3ccc(-c4ccc(C(C)(C)C#N)cc4)s3)c2cc1OC (stereo in doubt) [Example 137, 2-[4-(5-{1-[(6,7-dimethoxy-2-methylquinazolin-4-yl)amino]ethyl}thiophen-2-yl)phenyl]-2-methylpropanenitrile] | – | 32 | – | – | 36 | 48
CCCOc1ccc(Cl)cc1-c1ccc([C@H](C)Nc2nc(C)nc3cc(OC)c(OC)cc23)s1 (stereo in doubt) [Example 144, N-{1-[5-(5-chloro-2-propoxyphenyl)thiophen-2-yl]ethyl}-6,7-dimethoxy-2-methylquinazolin-4-amine] | – | 19 | – | – | 12 | 30
COc1cc2nc(C)nc(N[C@@H](C)c3ccc(-c4ccccc4Oc4ccccc4)s3)c2cc1OC (stereo in doubt) [Example 158, 6,7-dimethoxy-2-methyl-N-{1-[5-(2-phenoxyphenyl)thiophen-2-yl]ethyl}quinazolin-4-amine] | – | 10 | – | – | 4 | 29
COc1cc2nc(C)nc(N[C@@H](C)c3ccc(-c4ccc(NC(=O)OC(C)(C)C)cc4)s3)c2cc1OC (stereo in doubt) [Example 159, tert-butyl [4-(5-{1-[(6,7-dimethoxy-2-methylquinazolin-4-yl)amino]ethyl}thiophen-2-yl)phenyl]carbamate] | – | 35 | – | – | 27 | 43
COc1cc2nc(C)nc(N[C@@H](C)c3ccc(-c4ccc5c(c4)OCCN5C)s3)c2cc1OC (stereo in doubt) [Example 164, 6,7-dimethoxy-2-methyl-N-{1-[5-(4-methyl-3,4-dihydro-2H-1,4-benzoxazin-7-yl)thiophen-2-yl]ethyl}quinazolin-4-amine] | – | 22 | – | – | 19 | 41
COc1cc2nc(C)nc(N[C@@H](C)c3ccc(-c4cccc(OCC5CC5)c4)s3)c2cc1OC (stereo in doubt) [Example 170, N-[1-{5-[3-(cyclopropylmethoxy)phenyl]thiophen-2-yl}ethyl]-6,7-dimethoxy-2-methylquinazolin-4-amine] | – | 15 | – | – | 7 | 45
Cc1nc(N[C@H](C)c2ccccc2)c2cc(Br)ccc2n1 [Example 29, 6-bromo-2-methyl-N-[(1R)-1-phenylethyl]quinazolin-4-amine] | 10.9 | 44 | 10.2 | – | – | –
Cc1nc(N[C@H](C)c2ccc(F)cc2)c2cc(Br)ccc2n1 [Example 31, 6-bromo-N-[(1R)-1-(4-fluorophenyl)ethyl]-2-methylquinazolin-4-amine] | 9.51 | 49 | 8.59 | – | – | –
